Results from ChEMBL document CHEMBL1127772, “Pyrazolo[1,5-a]pyridines and pyrazolo[1,5-b]pyridazines as 5ht3-antagonists” (Bioorg Med Chem Lett, 1994).

Tests used:
[1] = target: T1, Serotonin 3 (5-HT3) receptor (Rattus norvegicus, UniProt P35563+Q9JJ16); experiment: Inhibition of [3H]GR-65630 binding to rat cortical membrane serotonin 3 receptor
T1 sequence (P35563 whole entry): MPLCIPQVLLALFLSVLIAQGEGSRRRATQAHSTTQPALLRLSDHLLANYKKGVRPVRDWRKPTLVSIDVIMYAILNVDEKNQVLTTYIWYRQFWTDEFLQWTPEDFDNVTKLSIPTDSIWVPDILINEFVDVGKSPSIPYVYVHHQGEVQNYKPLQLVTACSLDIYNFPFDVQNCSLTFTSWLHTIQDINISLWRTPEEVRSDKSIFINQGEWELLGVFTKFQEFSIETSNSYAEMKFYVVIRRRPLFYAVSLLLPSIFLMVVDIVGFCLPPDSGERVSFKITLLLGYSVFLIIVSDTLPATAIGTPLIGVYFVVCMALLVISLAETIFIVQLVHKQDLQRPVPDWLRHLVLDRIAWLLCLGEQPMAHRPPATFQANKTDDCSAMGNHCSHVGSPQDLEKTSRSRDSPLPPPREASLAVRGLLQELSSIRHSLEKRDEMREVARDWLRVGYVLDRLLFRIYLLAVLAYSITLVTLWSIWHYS
T1 sequence (Q9JJ16 whole entry): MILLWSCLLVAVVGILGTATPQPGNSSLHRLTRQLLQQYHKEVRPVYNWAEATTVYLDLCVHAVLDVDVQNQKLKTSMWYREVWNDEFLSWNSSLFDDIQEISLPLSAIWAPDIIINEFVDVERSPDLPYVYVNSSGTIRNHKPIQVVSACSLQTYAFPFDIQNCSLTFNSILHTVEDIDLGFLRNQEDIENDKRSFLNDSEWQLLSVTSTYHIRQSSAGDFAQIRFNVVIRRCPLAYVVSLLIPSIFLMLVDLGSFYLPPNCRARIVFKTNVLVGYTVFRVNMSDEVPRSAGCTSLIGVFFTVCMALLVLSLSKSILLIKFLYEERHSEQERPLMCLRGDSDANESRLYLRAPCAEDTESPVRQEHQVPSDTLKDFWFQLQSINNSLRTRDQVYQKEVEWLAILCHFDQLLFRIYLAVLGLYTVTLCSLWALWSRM

[2] = target: T2, Serotonin 3 (5-HT3) receptor (Rattus norvegicus) (UniProt P35563+Q9JJ16); experiment: Antagonism of 5-HT-induced Von Bezold-Jarisch reflex in rat after intravenous administration of 30 ug/kg of HT (5-hydroxytryptamine 3 receptor antagonism); type: functional, organism-based
[3] = target: T1, Serotonin 3 (5-HT3) receptor; experiment: Inhibition of 5-HT (1 ug/mL) induced depolarization in rat vagus nerve (5-hydroxytryptamine 3 receptor antagonism); type: functional, tissue-based
[4] = target: T2, Serotonin 3 (5-HT3) receptor (Rattus norvegicus); experiment: Ability to antagonise the 5-HT- induced Von Bezold-Jarisch reflex in the rat after intravenous administration of 30 ug/kg of HT (5-hydroxytryptamine 3 receptor); type: functional, organism-based
[5] = target: T3, D(2) dopamine receptor (Homo sapiens, UniProt P14416); experiment: Tested for binding affinity for Dopamine D2 receptors
T3 sequence (P14416 whole entry): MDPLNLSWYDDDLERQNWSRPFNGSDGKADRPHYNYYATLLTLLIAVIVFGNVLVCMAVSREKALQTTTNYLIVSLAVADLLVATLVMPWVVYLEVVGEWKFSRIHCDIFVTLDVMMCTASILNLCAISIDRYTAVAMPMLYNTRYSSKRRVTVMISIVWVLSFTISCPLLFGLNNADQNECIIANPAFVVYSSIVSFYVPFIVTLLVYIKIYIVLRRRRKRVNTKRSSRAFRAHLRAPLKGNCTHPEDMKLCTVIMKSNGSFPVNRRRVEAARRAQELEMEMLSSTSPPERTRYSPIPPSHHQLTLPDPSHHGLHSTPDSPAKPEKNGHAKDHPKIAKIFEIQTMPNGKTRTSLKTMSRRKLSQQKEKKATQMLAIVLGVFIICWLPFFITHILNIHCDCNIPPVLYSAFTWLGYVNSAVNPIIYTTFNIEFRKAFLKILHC

[6] = target: Serotonin 2 (5-HT2) receptor (Homo sapiens, UniProt P41595+P28223+P28335); experiment: Tested for binding affinity for 5-hydroxytryptamine 2 receptor; type: protein assay
[7] = target: T4, 5-hydroxytryptamine receptor 1A (Homo sapiens, UniProt P08908); experiment: Tested for binding affinity for 5-hydroxytryptamine 1A receptor
T4 sequence (P08908 whole entry): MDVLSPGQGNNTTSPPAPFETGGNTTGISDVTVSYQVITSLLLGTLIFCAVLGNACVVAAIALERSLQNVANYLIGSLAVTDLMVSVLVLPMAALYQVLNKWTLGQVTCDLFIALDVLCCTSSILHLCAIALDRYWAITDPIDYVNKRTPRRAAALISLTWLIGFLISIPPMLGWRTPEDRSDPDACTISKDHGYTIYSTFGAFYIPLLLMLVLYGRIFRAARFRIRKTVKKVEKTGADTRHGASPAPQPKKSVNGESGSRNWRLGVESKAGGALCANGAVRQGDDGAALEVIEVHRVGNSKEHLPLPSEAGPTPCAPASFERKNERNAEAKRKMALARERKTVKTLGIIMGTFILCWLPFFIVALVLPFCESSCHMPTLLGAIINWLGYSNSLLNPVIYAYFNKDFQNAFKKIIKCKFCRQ

[8] = target: T3, D(2) dopamine receptor; experiment: Tested for binding affinity for Dopamine D2 receptor
[9] = target: T1, Serotonin 3 (5-HT3) receptor; experiment: Tested for inhibition of binding of [3H]GR-65630 to rat cortical membranes, expressed as IC50; type: cell membranes, Membrane

Row | SMILES | IC50 [1] [nM] | ED50 [2] [µg/kg] | IC50 [3] [nM] | ED50 [4] [µg/kg] | further results
1 | CN1C2CCC1CC(NC(=O)c1cnn3ncccc13)C2 (stereo not given) | 429 | 30 |  |  | 
2 | CN1C2CCCC1CC(NC(=O)c1cnn3ccccc13)C2 (stereo not given) | 170 | 5 | 300 |  | 
3 | O=C(N[C@H]1CN2CCC1C2)c1cnn2ccccc12 (stereo not given in full) | 52 | 2 | 124 |  | 
4 | Cc1nn2ccccc2c1C(=O)NC1CC2CCC(C1)N2C (stereo not given) | 26 |  | 42 | 1.2 | 
5 | CN1C2CCC1CC(OC(=O)c1cnn3ccccc13)C2 (stereo not given) | 28 | 2 |  |  | IC50 [5]: > 10000 nM; IC50 [6]: > 10000 nM; IC50 [7]: > 10000 nM
6 | Cc1nn2ncccc2c1C(=O)NC1CC2CCCC(C1)N2C (stereo not given) | > 300 |  |  | > 50 | 
7 | Cc1nn2ccccc2c1C(=O)NC1CC2CCCC(C1)N2C (stereo not given) | 64 | 6 | 100 |  | 
8 | O=C(N[C@@H]1CN2CC[C@@H]1C2)c1cnn2ccccc12 | 72 | 8 | 419 |  | 
9 | CN1C2CCC1CC(NC(=O)c1cnn3ccccc13)C2 (stereo not given) | 34 | 0.74 | 105 |  | IC50 [6]: > 10000 nM; IC50 [7]: > 10000 nM; IC50 [8]: > 10000 nM
10 | CN1C2CCCC1CC(NC(=O)c1cnn3ncccc13)C2 (stereo not given) |  |  |  | > 100 | IC50 [9]: 818 nM
11 | Cc1nn2ncccc2c1C(=O)NC1CC2CCC(C1)N2C (stereo not given) | 122 |  |  | 50 | 
12 | O=C(NC1CN2CCC1CC2)c1cnn2ccccc12 (stereo not given) | 75 | 1 | 83 |  | 
13 | CN1[C@@H]2CC[C@H]1C[C@@H](OC(=O)c1c[nH]c3ccccc13)C2 [TROPISETRON] | 3.1 | 0.5 | 1.4 |  | 
